Experimental data reported in patent US4731486A, “Hydroformylation using low volatile phosphine ligands” (Union Carbide Corporation, priority 1986, dated 1988).
Structures can show the parent of a compound that is named as a salt.

Key:
[1] = Batch hydroformylation of propylene in stirred autoclave (Examples 1, 2, 11, 14, 19); details: 100° C., 90 psia 1:1:1 H2:CO:C3H6
Description: A series of various rhodium complex catalyst precursor solutions consisting essentially of the solubilized reaction product of rhodium dicarbonyl acetylacetonate and various monosulfonated triphenylphosphine metal salt ligands were prepared and employed to hydroformylate propylene into C4 aldehydes in the following manner.
Each rhodium catalytic precursor solution so prepared was then employed to hydroformylate propylene in a magnetically stirred, 100 mL capacity, stainless steel autoclave which was attached to a gas manifold for introducing gases to the desired partial pressures. The autoclave was also equipped with a pressure calibrator for determining reaction pressure to ±0.01 psia. and a platinum resistance thermometer for determining reactor solution temperatures to ±0.10° C. The reactor was heated externally by two 300 watt heating bands. The reactor solution temperature was controlled by a platinum resistance sensor connected to an external proportional temperature controller for controlling the temperature of the external band heaters.
In each non-aqueous hydroformylation reaction, about 15 milliliters (about 14 grams) of the rhodium catalytic precursor solution so prepared was charged to the autoclave reactor under nitrogen and heated to the reaction temperature employed (as given in Table 1 below). The reactor was then vented down to 5 psig. and a premixed gas mixture of 1:1:1 carbon monoxide:hydrogen:propylene was introduced into the reactor via the gas manifold (partial pressures given in Table 1) and the propylene so hydroformylated.
A comparison of the catalytic activity of aqueous and non-aqueous solutions of monosulfonated triphenylphosphine sodium salt ligand promoted catalysts in hydroformylating various molecular weight alphe-olefins was determined as follows.
Both the aqueous and non-aqueous hydroformylation reactions were conducted under identical conditions with regard to temperature, rhodium and ligand concentration, hydrogen and carbon monoxide partial pressure and olefin concentration.

[2] = Continuous single pass hydroformylation of butene-1 (Examples 3, 4, 5, 7, 12)
Description: Continuous hydroformylation of butene-1 a monosulfonated triphenylphosphine metal salt ligand was conducted in the following manner.
The non-aqueous hydroformylation was conducted in a glass reactor operating in a continuous single pass butene-1 hydroformylation mode. The reactor consisted of a three-ounce pressure bottle submersed in an oil bath with a lass front for viewing. About 20-mL of a freshly prepared rhodium catalytic precursor solution was charged to the reactor with a syringe, after purging the system with nitrogen. […] After closing the reactor, the system was again purged with nitrogen and the oil bath was heated to furnish the desired hydroformylation reaction temperature. The hydroformylation reaction was conducted at a total gas pressure of about 160 psig., the partial pressures of hydrogen, carbon monoxide, and butene-1 being given in Table 3 below, the remainder being nitrogen and aldehyde product.
The flows of the feed gases (carbon monoxide, hydrogen, butene-1 and nitrogen) were controlled individually with mass flow meters and the feed gases dispersed into the precursor solution via microporous stainless steel spargers. The unreacted portion of the feed gases was stripped out with the product C5 aldehydes and the outlet gas analyzed over about 12 days of continuous operation.

[3] = Solubility of metal salt ligands in nonanal with added solubilizing agent; type: physicochemical; details: 25° C., nonanal with 1:4 CARBOWAX TPEG-900/TERGITOL NP-9
[4] = 200 ppm Rh, about 120 mole equivalents ligand, Texanol/Carbowax PEG-600: Li 100:0, K 9:1, Rb 8:1, Cs 7:1, Ca 20:1, Ba 7:1, Sr 18:1
[5] = Texanol, day 0.8, 80 °C, CO 40, H2 39, C4H8 3 psia
[6] = Texanol, day 1.9, 80 °C, CO 38, H2 41, C4H8 4 psia
[7] = Texanol, day 2.8, 80 °C, CO 39, H2 41, C4H8 3 psia
[8] = Texanol, day 3.9, 80 °C, CO 38, H2 42, C4H8 4 psia
[9] = Texanol, day 5.0, 80 °C, CO 38, H2 42, C4H8 4 psia
[10] = Texanol, day 5.8, 80 °C, CO 38, H2 42, C4H8 5 psia
[11] = Texanol, day 6.8, 80 °C, CO 38, H2 43, C4H8 4 psia
[12] = Texanol, day 7.8, 80 °C, CO 38, H2 44, C4H8 5 psia
[13] = Texanol, day 9.0, 80 °C, CO 39, H2 43, C4H8 5 psia
[14] = Texanol, day 10.0, 80 °C, CO 42, H2 38, C4H8 6 psia
[15] = Texanol, day 10.9, 80 °C, CO 41, H2 39, C4H8 6 psia
[16] = Texanol, day 11.0 (so in the source), 80 °C, CO 41, H2 39, C4H8 6 psia
[17] = Texanol, day 12.9, 80 °C, CO 41, H2 39, C4H8 5 psia
[18] = Texanol, 240 ppm Rhodium, about 14 mole equivalents ligand (0.9 wt. %)
[19] = Texanol/PEG-600 20:1, day 0.9, 101 °C, CO 20, H2 59, C4H8 20 psia
[20] = Texanol/PEG-600 20:1, day 1.7, 101 °C, CO 19, H2 55, C4H8 18 psia
[21] = Texanol/PEG-600 20:1, day 5.0, 101 °C, CO 16, H2 47, C4H8 36 psia
[22] = Texanol/PEG-600 20:1, day 5.9, 101 °C, CO 17, H2 51, C4H8 29 psia
[23] = Texanol/PEG-600 20:1, day 7.0, 101 °C, CO 13, H2 43, C4H8 50 psia
[24] = Texanol/PEG-600 20:1, day 8.0, 101 °C, CO 17, H2 41, C4H8 36 psia
[25] = Texanol/PEG-600 20:1, day 9.0, […], CO 17, H2 36, C4H8 52 psia
[26] = Texanol/PEG-600 20:1, day 10.0, […], CO 18, H2 30, C4H8 56 psia
[27] = Texanol/PEG-600 20:1, day 11.8, […], CO 17, H2 29, C4H8 63 psia
[28] = Texanol/PEG-600 20:1, day 11.9 (so in the source), […], CO 17, H2 29, C4H8 59 psia
[29] = Texanol/PEG-600 20:1, day 12.6, 103 °C, CO 18, H2 29, C4H8 61 psia

O=S(=O)(O)c1cccc(P(c2ccccc2)c2ccccc2)c1 [Sr^++]
Reaction Rate (C4 aldehydes) [1, 4]: No Rate

O=S(=O)(O)c1cccc(P(c2ccccc2)c2ccccc2)c1 [K^+]
Linear/Branched Aldehyde Mole Ratio ([1]; 200 ppm Rh, about 120 mole equivalents ligand, Texanol/Carbowax PEG-600: Li 100:0, K 9:1, Rb 8:1, Ca 20:1, Ba 7:1): 5.1 | Reaction Rate (C4 aldehydes) [1, 4]: 0.87 Gmoles/L/Hr

O=S(=O)(O)c1cccc(P(C2CCCCC2)C2CCCCC2)c1 [DCHPPMS-Na, monosulfonated dicyclohexylphenylphosphine sodium salt]
Linear/Branched Aldehyde Mole Ratio [2, 5]: 1.86 | Rate (C5 aldehydes), daily average [2, 5]: 0.86 gmoles/L/Hr | Linear/Branched Aldehyde Mole Ratio [2, 6]: 1.88 | Rate (C5 aldehydes), daily average [2, 6]: 1.02 gmoles/L/Hr | Linear/Branched Aldehyde Mole Ratio [2, 7]: 1.99 | Rate (C5 aldehydes), daily average [2, 7]: 0.87 gmoles/L/Hr | Linear/Branched Aldehyde Mole Ratio [2, 8]: 1.84 | Rate (C5 aldehydes), daily average [2, 8]: 0.85 gmoles/L/Hr | Linear/Branched Aldehyde Mole Ratio [2, 9]: 1.83 | Rate (C5 aldehydes), daily average [2, 9]: 0.88 gmoles/L/Hr | Linear/Branched Aldehyde Mole Ratio [2, 10]: 1.79 | Rate (C5 aldehydes), daily average [2, 10]: 0.86 gmoles/L/Hr | Linear/Branched Aldehyde Mole Ratio [2, 11]: 1.95 | Rate (C5 aldehydes), daily average [2, 11]: 0.80 gmoles/L/Hr | Linear/Branched Aldehyde Mole Ratio [2, 12]: 1.78 | Rate (C5 aldehydes), daily average [2, 12]: 0.86 gmoles/L/Hr | Linear/Branched Aldehyde Mole Ratio [2, 13]: 1.75 | Rate (C5 aldehydes), daily average [2, 13]: 0.72 gmoles/L/Hr | Linear/Branched Aldehyde Mole Ratio [2, 14]: 1.79 | Rate (C5 aldehydes), daily average [2, 14]: 0.94 gmoles/L/Hr | Linear/Branched Aldehyde Mole Ratio [2, 15]: 1.89 | Rate (C5 aldehydes), daily average [2, 15]: 0.95 gmoles/L/Hr | Linear/Branched Aldehyde Mole Ratio [2, 16]: 1.92 | Rate (C5 aldehydes), daily average [2, 16]: 0.99 gmoles/L/Hr | Linear/Branched Aldehyde Mole Ratio [2, 17]: 1.77 | Rate (C5 aldehydes), daily average [2, 17]: 0.95 gmoles/L/Hr | Linear/Branched Aldehyde Mole Ratio [1, 18]: 1.2 | Reaction Rate (C4 aldehydes) [1, 18]: 0.78 G moles/L/hr

O=S(=O)(O)c1cccc(P(c2ccccc2)c2ccccc2)c1 [Ca^++, monosulfonated triphenylphosphine calcium salt]
Linear/Branched Aldehyde Mole Ratio [2, 19]: 12.84 | Rate (C5 aldehydes), daily average [2, 19]: 1.27 gmoles/L/Hr | Linear/Branched Aldehyde Mole Ratio [2, 20]: 14.44 | Rate (C5 aldehydes), daily average [2, 20]: 1.38 gmoles/L/Hr | Linear/Branched Aldehyde Mole Ratio [2, 21]: 13.06 | Rate (C5 aldehydes), daily average [2, 21]: 1.62 gmoles/L/Hr | Linear/Branched Aldehyde Mole Ratio [2, 22]: 17.67 | Rate (C5 aldehydes), daily average [2, 22]: 1.64 gmoles/L/Hr | Linear/Branched Aldehyde Mole Ratio [2, 23]: 20.95 | Rate (C5 aldehydes), daily average [2, 23]: 1.85 gmoles/L/Hr | Linear/Branched Aldehyde Mole Ratio [2, 24]: 18.76 | Rate (C5 aldehydes), daily average [2, 24]: 2.09 gmoles/L/Hr | Linear/Branched Aldehyde Mole Ratio [2, 25]: 18.38 | Rate (C5 aldehydes), daily average [2, 25]: 2.19 gmoles/L/Hr | Linear/Branched Aldehyde Mole Ratio [2, 26]: 20.52 | Rate (C5 aldehydes), daily average [2, 26]: 1.40 gmoles/L/Hr | Linear/Branched Aldehyde Mole Ratio [2, 27]: 18.90 | Rate (C5 aldehydes), daily average [2, 27]: 1.51 gmoles/L/Hr | Linear/Branched Aldehyde Mole Ratio [2, 28]: 21.86 | Rate (C5 aldehydes), daily average [2, 28]: 1.62 gmoles/L/Hr | Linear/Branched Aldehyde Mole Ratio [2, 29]: 28.03 | Rate (C5 aldehydes), daily average [2, 29]: 1.83 gmoles/L/Hr | Linear/Branched Aldehyde Mole Ratio ([1]; 200 ppm Rh, about 120 mole equivalents ligand, Texanol/Carbowax PEG-600: Li 100:0, K 9:1, Rb 8:1, Ca 20:1, Ba 7:1, calcium salt): 4.7 | Reaction Rate (C4 aldehydes) ([1]; 200 ppm Rh, about 120 mole equivalents ligand, Texanol/Carbowax PEG-600: Li 100:0, K 9:1, Rb 8:1, Cs 7:1, Ca 20:1, Ba 7:1, Sr 18:1, calcium salt): 0.51 Gmoles/L/Hr | Metal Salt Solubility ([3]; calcium salt): 18 Wt. %

O=S(=O)(O)c1cccc(P(c2ccccc2)c2ccccc2)c1 [Cs^+]
Reaction Rate (C4 aldehydes) [1, 4]: Declining Rate | Metal Salt Solubility [3]: > 10 Wt. %

O=S(=O)(O)c1cccc(P(c2ccccc2)C2CCCCC2)c1 (stereo not drawn) [CHDPPMS-Na, monosulfonated cyclohexyldiphenylphosphine sodium salt]
Linear/Branched Aldehyde Mole Ratio [1, 18]: 1.6 | Reaction Rate (C4 aldehydes) [1, 18]: 0.32 G moles/L/hr
